The data set is described as follows: Human HepG2 cell viability assay in 384 well format. The note with it: HepG2 cells, read-out: Inhibition. Format: toxicity, cell-based. Details: dose 125 nL, time 70.5 hour; cytotoxicity at 70.5 h: concentration not given beside the values.

Take `Cn1cnc2c1CCN(Cc1nc(-c3ccco3)no1)C2`: the cytotoxicity at 70.5 h was found to be 8.47%.

As for `O=C(c1ccc(-n2ccnc2)nn1)N1CCCCC1Cn1cccn1` (stereo not given), the cytotoxicity at 70.5 h is -5.22%.

With `CC(CO)N1CCN(C(=O)OC(C)(C)C)CC1` (stereo not given), the cytotoxicity at 70.5 h is -6.8%.

`Cc1cccc(-c2nc(CN3CCn4c(nnc4C4CC4)C3)no2)c1`: the cytotoxicity at 70.5 h is -12.1%.

As for `COc1ccc(Nc2ncccc2C#N)cc1N1CCCC1=O`, the cytotoxicity at 70.5 h was found to be 5.71%. Next, `Cc1nc(CN2CCCN(Cc3nc4c(F)cccc4[nH]3)CC2)no1`: -10.4%. With `Cc1nc(C2CCCN2CCCn2c(=O)oc3ccccc32)no1` (stereo not given), the cytotoxicity at 70.5 h was 19.1%. Turning to `CC(C)=CCN1CCN(C(=O)C2CC2)CC1`, the cytotoxicity at 70.5 h was 2.37%.

In the case of `O=C(Nc1cccnc1-n1cccn1)N1CCCC(N2CCCC2)C1` (stereo not given), the cytotoxicity at 70.5 h is -4.62%. Next, `CN(C)c1ccc(CNCc2ccc(N3CCOCC3)cc2)cn1`: -9.01%.

Consider `Cc1cc(N(C)CCOc2ccccc2F)nc(N)n1`, for which the cytotoxicity at 70.5 h was -2.43%. Next, `COc1ccccc1OCCN(C)c1cc(C)nc(N)n1`: 18.7%; `CN(C)c1cc(CNCc2ccc(N3CCOCC3)cc2)ccn1`: -6.16%.

Take `CN(C)c1ncccc1CNCc1ccc(N2CCOCC2)cc1`: the cytotoxicity at 70.5 h amounted to 18.9%. As for `c1cnn(C2CN(c3ncnc4[nH]ccc34)C2)c1`, the figure is -0.76%. Next, `Cc1cc(C)n(C2CN(c3ncnc4[nH]ccc34)C2)n1`: -3.24%; `Cc1cnn(C2CN(c3ncnc4[nH]ccc34)C2)c1`: -3.84%. As for `CC(C)CCN(C(=O)CCn1cc(S(N)(=O)=O)cn1)C1CC1`, the figure is -1.68%; as for `Cc1ccccc1N(CC(=O)NCCc1nnc2n1CCC2)S(C)(=O)=O`, -4.09%. On to `Cn1cnc2c1CCN(Cc1ccc(Cl)c3cccnc13)C2`, for which the cytotoxicity at 70.5 h worked out at 15.6%. As for `Cn1nnnc1SC1CCN(c2ccccc2Cl)C1=O` (stereo not given), the figure is -2.66%; as for `Cn1cc(C2CCCN2C(=O)Cn2c(=O)oc3ccccc32)cn1` (stereo not given), -4.25%; as for `O=C1C(Sc2nnnn2C2CC2)CCN1c1ccccc1F` (stereo not given), -3.39%. Next, `Cn1cnc2c1CCN(Cc1c(Cl)ccc3cccnc13)C2`: 0.125%; `CS(=O)(=O)N(Cc1ccon1)c1cccc(Br)c1`: -1.5%; `Cc1ccc(CN(C)c2cc(N3CCCC3CO)ncn2)s1` (stereo not given): -4.83%. As to `Cn1nnnc1SC1CCCN(c2ccccc2Cl)C1=O` (stereo not given), the cytotoxicity at 70.5 h is -1.81%. As for `CN(C)c1ccc(C(=O)NCc2ccc(N3CCOCC3)cc2)cn1`, the cytotoxicity at 70.5 h came out at 14.5%. For `CCc1nnc(C(C)N2CCc3cncnc3C2)o1` (stereo not given), the cytotoxicity at 70.5 h was -3.77%. On to `Cc1cc(CNC2(c3ccc(Cl)cc3)CC2)no1`, for which the cytotoxicity at 70.5 h was -2.02%. Next, `CC(=O)N1CCN(CC=C(C)C)CC1`: -6.01%; `CC(c1nnc(-c2ccccc2)o1)N1CCc2cncnc2C1` (stereo not given): -4.24%; `Cc1ccsc1CN(C)c1cc(N2CCCC2CO)ncn1` (stereo not given): -3.13%. Next, `COc1cccc2c1N(C(=O)c1ccc(C)nc1)CCC2`: 4.1%. As for `O=C(c1ccc2c(c1)CCO2)N1CCN(c2ncccn2)CC1`, the figure is 2.69%. With `CCCn1ccnc1SCCNS(=O)(=O)c1ccccc1`, the cytotoxicity at 70.5 h was -1.16%. Regarding `CCN(Cc1noc(C(C)C)n1)Cc1ccc(C#N)cc1F`, the cytotoxicity at 70.5 h stood at 27.6%. As for `N#Cc1c(Cl)nsc1N1CCN(CC2CC2)CC1`, the figure is 2.5%; as for `COc1ccc(C)c2c1N(C(=O)c1cnc3onc(C)c3c1)CCC2`, 2.65%; as for `COc1ccc(C)c2c1N(C(=O)c1ccc3nnc(C)n3c1)CCC2`, -2.94%. Consider `CCCN(CC(F)(F)F)C(=O)c1cc(F)cc2[nH]cnc12`, for which the cytotoxicity at 70.5 h is 0.747%.

On to `CC(C)c1nc(/C=C/c2ccc(O)c(Cl)c2)ncc1C(=O)O`, for which the cytotoxicity at 70.5 h was -4.86%. As for `CC(C)(C#N)c1ccc(NS(=O)(=O)CC2CCCCO2)cc1` (stereo not given), the cytotoxicity at 70.5 h is -0.0974%. As to `N#Cc1cccc(S(=O)(=O)N2CC(CC(=O)O)c3ccccc32)c1` (stereo not given), the cytotoxicity at 70.5 h is -4.94%. Regarding `CC(C)c1nc(/C=C/c2cnn(-c3ccccc3)c2)ncc1C(=O)O`, the cytotoxicity at 70.5 h was -1.23%. Next, `CNS(=O)(=O)CC(=O)NC(C)Cc1ccccc1Br` (stereo not given): 3.97%; `CC(C)c1nnc(NCCS(C)(=O)=O)s1`: -0.429%; `CNS(=O)(=O)CC(=O)NC(C)Cc1ccc(Br)cc1` (stereo not given): 2.68%. In the case of `CNS(=O)(=O)CC(=O)NC(C)Cc1ccc(-c2ccccc2)cc1` (stereo not given), the cytotoxicity at 70.5 h worked out at 1.33%. Next, `CCNC(=O)NC1CN(Cc2ccncc2Cl)C[C@@H]1OC` (stereo not given in full): 28.4%; `Cc1ccc(-c2ncc(CNc3cnccc3CO)s2)cc1`: 3.65%; `OCc1ccncc1NCc1cnc(-c2ccccn2)s1`: 0.118%.

`CN(C)C(=O)Cc1ccccc1NCc1cccc2cccnc12`: the cytotoxicity at 70.5 h was 57.4%. Take `CCN(Cc1noc(C2CC2)n1)Cc1ccc(C#N)cc1F`: the cytotoxicity at 70.5 h worked out at 1.6%. Take `Cc1cnn(CCNCc2c(C)nn(Cc3ccccc3)c2C)c1`: the cytotoxicity at 70.5 h was determined as 23.6%. As for `COCCN(CCOC)C(=O)c1cccc(Cn2nc(C)cc2C)c1`, the figure is 0.115%; as for `CCN(CCC(=O)OC)C(=O)c1cc(F)cc2[nH]cnc12`, 0.0493%. Next, `N#Cc1ccc(S(=O)(=O)N2CC(CC(=O)O)c3ccccc32)cc1` (stereo not given): -3.42%; `CNS(=O)(=O)CC(=O)NC(C)Cc1cccc(Cl)c1` (stereo not given): -2.05%. Next, `CCN(Cc1noc(C(C)(C)C)n1)Cc1ccc(C#N)cc1F`: -6.26%; `Cc1c(C(=O)NS(=O)(=O)c2ccsc2)cnn1CC(C)C`: 4.87%; `CC(=O)NC(CC(=O)Nc1nc(C)c(C)s1)c1ccccc1` (stereo not given): 0.551%. With `CC(Cn1cccn1)NC(=O)N(C)Cc1ccsc1` (stereo not given), the cytotoxicity at 70.5 h was -16.6%. As for `CC(Cn1ccnc1)NC(=O)N(C)Cc1ccsc1` (stereo not given), the figure is -27.1%; as for `O=C1CCCN1c1cccc(CNCc2nc(-c3ccco3)no2)c1`, -17.4%. Next, `CNC(=O)NC(=O)CCSCc1cc(Cl)cc2cccnc12`: -16.5%. Next, `Cc1cc(C)cc(OCC(=O)N2CCCN(CC(N)=O)CC2)c1`: -16.4%.

Take `NC(=O)NC(=O)CCSCc1cc(F)cc2cccnc12`: the cytotoxicity at 70.5 h was -29.1%. Regarding `CC(C)NC(=O)N(C)C1CCN(c2ccccc2Cl)C1=O` (stereo not given), the cytotoxicity at 70.5 h is -21.1%. Next, `COCc1noc(-c2cc(Cl)c3c(c2)OCO3)n1`: -19.3%. As for `Cc1nccn1CCCNc1nccnc1C#N`, the cytotoxicity at 70.5 h turned out to be 44.8%. As for `COc1ccccc1S(=O)(=O)Nc1cnc(O)cc1C`, the figure is -10.5%. As for `CCN(CC)C(=O)COc1ccnc2cc(OC)ccc12`, the figure is -19.4%; as for `CC(C)c1nsc(N2CCS(=O)(=O)CC2)n1`, -22.3%; as for `Clc1cnc(NCc2ccccc2N2CCOCC2)nc1`, -14.4%. As for `CN(Cc1nccn1C)C(CO)c1cccc(Br)c1` (stereo not given), the figure is -28.6%. Take `CC(Cn1cccn1)NCc1cnc(N2CCCC2)nc1` (stereo not given): the cytotoxicity at 70.5 h is -3.66%. Next, `CCC(C)(COc1ncccc1Cl)NCC(=O)Nc1ccc(Br)cn1` (stereo not given): 38.6%; `O=S(=O)(CCNCCn1cccn1)c1ccccc1`: -18.7%; `CCC(C)(COc1ncccc1Cl)NCC(=O)NCC(C)C` (stereo not given): -30.2%. Regarding `COc1cc(CNC(=O)NCCCF)cc(Br)c1OC`, the cytotoxicity at 70.5 h is -2.35%. As for `CCc1nc(NS(=O)(=O)c2ccc(C)cc2Cl)no1`, the figure is -4.3%; as for `CCc1nc(NS(=O)(=O)c2cc(C)ccc2F)no1`, -8.12%; as for `COc1cccc(S(=O)(=O)CCN2CCCN(C(C)=O)CC2)c1`, 0.259%. As for `CC(=O)c1ccccc1C(=O)NCC1(CO)CC1`, the figure is 4.58%; as for `Cc1nc(C)n(CC2CCCCN2CCCS(=O)(=O)N(C)C)n1` (stereo not given), 3.2%.

As for `Cn1cc(S(=O)(=O)N2CCCC2CC(=O)c2cccs2)cn1` (stereo not given), the cytotoxicity at 70.5 h was -9.81%. Next, `CC(C)CCC(C)NC(=O)c1ccc(OCC(N)=O)cc1` (stereo not given): -3.72%; `CCC(CNC(=O)c1ccc(=O)[nH]n1)N1CCc2ccccc2C1` (stereo not given): -10.3%. Turning to `Cc1nc(CNC(=O)NCC(O)c2cccc(Cl)c2)cs1` (stereo not given), the cytotoxicity at 70.5 h came out at 5.52%. Next, `CCN(Cc1ccco1)C(=O)NCc1nnc2n1CCC2`: -13.2%; `c1ccc(-c2noc(CN3CCC(c4ccn[nH]4)CC3)n2)cc1`: -14.9%; `CC(=O)N1CCCN(C(=O)c2oc(Br)cc2C)CC1`: -3.38%. For the molecule `Cc1ccc(C(O)CNC(=O)NCc2nc(C)cs2)cc1` (stereo not given), the cytotoxicity at 70.5 h is -2.07%. Next, `CC(=O)c1cccc(OCCCC(=O)N(C)CCc2ccncc2)c1`: -10.1%; `CC(CNC(=O)c1cccnc1Oc1cccnc1)N(C)C` (stereo not given): -8.64%; `O=S(=O)(CCNCc1ccc2c(c1)CCO2)N1CCOCC1`: 12.8%.

Consider `O=C(NCCOc1ccc(F)c(F)c1)NCc1cccc(CO)c1`, for which the cytotoxicity at 70.5 h was -9.23%. As for `CN(Cc1ccco1)Cc1ccccc1CNC(=O)c1ccncc1`, the figure is -8%; as for `CN(Cc1ccco1)Cc1ccccc1CNC(=O)c1ccc[nH]1`, -9.87%. Next, `COc1ccc(OCC(=O)NS(=O)(=O)c2cc(F)ccc2F)cc1`: 20.8%; `Cc1c(I)cccc1C(=O)NCC1(CO)CC1`: -7.8%. As for `COc1ccc(C(CO)NC(=O)Nc2cccnc2)cc1` (stereo not given), the figure is 12.6%; as for `CC(CNC(=O)c1ccccc1Oc1cccnc1)N(C)C` (stereo not given), -6.12%.

With `CN(C)c1ccc(CNCc2cnc(N3CCOCC3)nc2)cn1`, the cytotoxicity at 70.5 h came out at 2.93%.
